Where two headings read alike, the source gives them in different places.
Target: T1, human glyoxalase I (GLO I) (Homo sapiens, UniProt Q04760)
T1 construct: gene GLO1; recombinant GLO I
T1 sequence (Q04760 2-184): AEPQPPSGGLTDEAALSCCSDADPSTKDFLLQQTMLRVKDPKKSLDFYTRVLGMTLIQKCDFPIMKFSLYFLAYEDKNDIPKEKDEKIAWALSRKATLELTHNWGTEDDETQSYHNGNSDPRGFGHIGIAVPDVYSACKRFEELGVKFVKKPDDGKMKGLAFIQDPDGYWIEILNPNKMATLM
Test: spectrophotometric assay of S-D-lactoylglutathione formation at […] nm with recombinant GLO I
Type: biochemical

| IC50 (read-out: IC50) [nM] | Structure (SMILES) | IC50 [nM] |
| --- | --- | --- |
| – | Oc1cc(O)cc(/C=C/c2ccc(O)c(O)c2)c1 [piceatannol] | 750 |
| 4200 | Oc1cc(O)cc(C2c3c(/C=C/c4ccc(O)c(O)c4)cc(O)cc3OC2c2ccc(O)c(O)c2)c1 (centres unmarked) [scirpusin B] | – |
